From patent US6437157B1, “20-substituted steroids” (Hoechst Marion Roussel, priority 1994, dated 2002)

How the values were obtained:
Sigma receptor [1] = experiment: Sigma receptor relative bond affinity (RBA), 3H PPP displacement, rat brain membranes; type: binding; settings: for Relative bond affinity (RBA) for the Sigma receptor, Brain (rat): 3 nM 3H PPP, haloperidol set equal to 100; for Displacement of 3H PPP from the Sigma receptor (in words): also evaluated on testicles
Protocol: (§1) The relative bond affinity was evaluated for preparations of rat brain and testicle membranes.
(§2) Male Sprague-Dawley rats originating from Iffa Credo and weighing approximately 200 g were used. The animals were scarified by decapitation and the brain and testicles were removed and homogenized in 10 to 25 volumes of 50 mM Tris-HCl buffer (pH 7.7) at 4° C. using an Ultrathurax. The homogenates were centrigued at 30,000 g for 15 minutes at 4° C. and the pellets were washed 3 times by resuspension in the same buffer and centrifugation under the same conditions. The membranes obtained in this way were stored at −80° C.
(§3) The marker of the sigma receptors used was ^3H PPP (propyl-3-(propyl-3-(3-hydroxyphenyl)-piperidine) of NEN having a specific activity of 3404 GBq/mmol. The membranes were suspended in the 50 mM Tris-HCl buffer, pH 8.0 to obtain a concentration of proteins of approximately 0.6 mg/ml for the testicles and 1 mg/ml for the brain. Aliquots of the homogenate were incubated for 90 minutes at 25° C. in a total volume of 0.5 ml with 3 nM of ^3H PPP in the presence of increasing concentrations of reference product (haloperidol) or of the products to be tested. At the end of the incubation, the 3H PPP bound to the membranes was separated from the free ^3H PPP by rapid filtration on Whatman GF/C filters pre-treated beforehand with 0.05% of polyethyleneimine. The precipitate was washed twice with 5 ml of Tris-HCl buffer and the radioactivity was counted after the addition of 20 ml of Aqualyte scintillating liquid (Baker).
(§4) The following two curves were drawn: percentage of bound tritiated marker 100×B/BO as a function of the logarithm of the concentration of unlabelled reference product or as a function of the logarithm of the concentration of unlabelled test product. The straight line of the following equation was determined:
(§5) BO=concentration of the bound tritiated marker in the absence of any unlabelled product.
B=concentration of the bound tritiated marker in the presence of a concentration X of unlabelled product.
Bmin=concentration of the bound tritiated marker in the presence of a large excess of the unlabelled reference product (5,000 nM).
The intersections of the straight line I50 and the curves allowed the evaluation of the concentrations of the unlabelled reference product (CH) and of the unlabelled test product (CX) which inhibited by 50% the specific binding of the tritiated marker on the receptor. The relative bond affinity (RBA) of the test product was determined by the equation:
The RBA of the haloperidol was arbitrarily set equal to 100.

Sigma receptor [2] = experiment: Sigma receptor relative bond affinity (RBA), 3H PPP displacement, rat testicle membranes; type: binding; settings: 3 nM 3H PPP, haloperidol set equal to 100
Protocol: as §1, §2, §3, §4, §5
B=concentration of the bound tritiated marker in the presence of a concentration X of unlabelled product. […]

human spermatozoids = experiment: Measurement of intracellular calcium in human spermatozoids (Fura2-AM fluorescence); type: cell-based
Protocol: The human sperm originated from healthy donors. […] The mobile spermatozoids were incubated for a minimum of 2 hours in the BWW/HSA capacitating medium and were then incubated at a concentration of 5-10×10^6/ml with Fura2-AM to a final concentration 2 μM at 37° C. for 45 minutes. After washing by centrifugation at 600 g for 10 minutes in. BWW without HSA, the spermatozoids were suspended at a concentration of 4×10^6/ml. The florescence signal was measured at 37° C. using a spectrofluorimeter at excitation wave lengths of 340 and 380 nm (PTIM 2001-Kontron) or at 340, 360 and 380 nm (Hitachi F 2000—B. Braun Science Tec.). The fluorescence emission was recorded at 505 nm. The progesterone or the products to be tested, dissolved in absolute ethanol, were added to the incubation medium at a final concentration of 0.1% of ethanol. When an antagonistic effect of the progesterone was sought, the product was added to the medium 2 minutes before the progesterone. At the end of the each dosage, 5 μM of ionomycin were added to the sample to measure the maximum fluorescence signal. […] These values allowed the intracellular concentration of calcium ([Ca^2+]i) to be calculated by the method described by Grunkiewicz et al. 1985, J. Biol. Chem., Vol. 260, pp. 3440-3450).

| SMILES | Relative bond affinity (RBA) for the Sigma receptor, Brain (rat) (Sigma receptor [1]) | Displacement of 3H PPP from the Sigma receptor (in words) (Sigma receptor [1]) | Relative bond affinity (RBA) for the Sigma receptor, Testicle (rat) (Sigma receptor [2]) | [Ca2+]i relative to the basal level set equal to 1 (human spermatozoids; 2 minutes pre-treatment with U 10^-5M + PROG. 10^-5M, Mean±SEM n=3) | [Ca2+]i relative to the basal level set equal to 1 (human spermatozoids; 2 minutes pre-treatment with U 10^-6M + PROG. 10^-5M, Mean±SEM n=3) | [Ca2+]i relative to the basal level set equal to 1 (human spermatozoids; 2 minutes pre-treatment with U 10^-7M + PROG. 10^-5M, Mean±SEM n=3) | [Ca2+]i relative to the basal level set equal to 1 (human spermatozoids; 2 minutes pre-treatment with U 10^-8M + PROG. 10^-5M, Mean±SEM n=3) | [Ca2+]i relative to the basal level set equal to 1 (human spermatozoids; Pre-treatment 2 mn with U 10^-5M + PROG. 10^-5M, Mean±SEM n=8) | Antagonistic effect on the progesterone-induced [Ca2+]i increase (in words) (human spermatozoids; Product U 10^-5M added 2 minutes before the progesterone) | [Ca2+]i relative to the basal level set equal to 1 (human spermatozoids; U 10^-5M alone, Mean±SEM n=8) | [Ca2+]i relative to the basal level set equal to 1 (human spermatozoids; PROG. 10^-5M alone, Mean±SEM n=3) | [Ca2+]i relative to the basal level set equal to 1 (human spermatozoids; PROG. 10^-5M alone, Mean±SEM n=8) | Effect on the intracellular calcium of human spermatozoids (in words) (human spermatozoids; progesterone 10^-5 M alone) |
| --- | --- | --- | --- | --- | --- | --- | --- | --- | --- | --- | --- | --- | --- |
| C[C@H](NCCN(C)C)[C@@H]1CC[C@@H]2[C@H]3CCc4cc(O)ccc4[C@@H]3CC[C@]21C [Example 1, (20S)(8α,9β,13α,14β,17α) 20-((dimethylamino)-ethyl)-amino-19-nor-Δ^1,3,5(10)-pregnatrien-3-ol] | 4.3 | capable of displacing ^3H PPP | 58.0 | 1.0 ± 0.0 | 2.63 ± 0.57 | 4.26 ± 1.93 | 3.33 ± 0.87 | 0.95 ± 0.05 | completely antagonized the effect of progesterone | 0.95 ± 0.05 |  |  |  |
| O=C(CCCN1CCC(O)(c2ccc(Cl)cc2)CC1)c1ccc(F)cc1 [Haloperidol] | 100.0 |  | 100.0 |  |  |  |  |  |  |  |  |  |  |
| CC(=O)[C@H]1CC[C@H]2[C@@H]3CCC4=CC(=O)CC[C@]4(C)[C@H]3CC[C@]12C [Progesterone, reference compound] | 0.7 | capable of displacing ^3H PPP | 0.3 |  |  |  |  |  |  |  | 3.67 ± 0.97 | 5.76 ± 0.84 | induced a transitory increase of the [Ca^2+]i |
